Patent publication US20250129028A1, “COMPOUNDS AND METHODS FOR YAP/TEAD MODULATION AND INDICATIONS THEREFOR” (Opna Bio SA, priority 2022, published 2025)

The compounds below were run on TEAD-dependent transcription (assay: TEAD-dependent transcription cell-based reporter assay (MSTO-211H+12XGTIIC luciferase)). Conditions: Homo sapiens; MSTO-211H+12XGTIIC cell line, luciferase signal normalized to cell viability, 24 hours compound incubation; read-out: MSTO-211H GMean IC50 (uM) Cell Assay Reporter Cell Variant: TEAD.
Set-up: species or system human
From the text: Determine Inhibitor Activity Against TEAD-Dependent Transcription in a Cell-Based Reporter Assay
The human mesothelioma cell line MSTO-211H was stably transfected with a pGL4.21 plasmid containing a synthetic promoter with 12 copies of the GTIIC TEAD response element that drives the expression of a luciferase reporter gene^1 using Lipofectamine transfection reagent (Thermo Fisher). Transfected cells were selected using puromycin and single cell clones expressing this construct (referred to as MSTO-211H+12XGTIIC) were generated by limiting dilution. MSTO-211H cells was characterized by genetic alterations in key components of the Hippo pathway^2, resulting in up-regulation of YAP/TEAD-mediated transcription. […] To evaluate TEAD inhibitors, the MSTO-211H+12XGTIIC cell line was seeded in a 96-well plate in 50 μL of culture media at 1×10^4 cells per well and incubated at 37° C. overnight. Serial dilutions of compounds (in total volume of 50 μL of culture media) were added to the cells and incubated at 37° C. for 24 hours. Each plate included cells treated with DMSO as high controls and cells treated with 20 μM of the reference compound K-975 (a known TEAD inhibitor)^3 as low controls. Cell viability was assayed by the addition of 25 μL of CellTiter-Fluor reagent (Promega) followed by a 30-minute incubation at 37° C. and quantification of the fluorescence signal (Ex400/Em505). Subsequently, luciferase expression was assayed by the addition of 25 μL of ONE-Glo reagent (Promega) followed by a 10-minute incubation at room temperature and quantification of the luminescence signal. The luminescence signal was normalized to the fluorescence signal to correct for any loss in cell viability over the 24-hour compound incubation period. The percentage of inhibition of normalized luminescence signal, indicative of compound-mediated inhibition of TEAD-dependent transcription, at individual compound concentrations relative to high and low controls was calculated. The data were analyzed by using nonlinear regression to generate IC50 values for individual compounds.
With `C=CC(=O)N1CCC(C2c3cc(Oc4ccc(C(F)(F)F)cc4)ccc3CCN2C(=O)CCS(C)(=O)=O)C1` (single isomer, unassigned) [P-0217, 1-(3-(2-(3-(methylsulfonyl)propanoyl)-7-(4-(trifluoromethyl)phenoxy)-1,2,3,4-tetrahydroisoquinolin-1-yl)pyrrolidin-1-yl)prop-2-en-1-one] the IC50 was 0.001 to 10 µM.
Work on `O=C(C1CCC1)N1CCc2ccc(Oc3ccc(C(F)(F)F)cc3)cc2C1` [P-0033, cyclobutyl(7-(4-(trifluoro-methyl)phenoxy)-3,4-dihydroisoquinolin-2(1H)-yl)methanone] yielded an IC50 of 0.001 to 10 µM.
`Cc1nnc(CCC(=O)N2CCc3ccc(Oc4ccc(C(F)(F)F)cc4)cc3C2)o1` [P-0063, 3-(5-methyl-1,3,4-oxadi-azol-2-yl)-1-(7-(4-(trifluoromethyl)phen-oxy)-3,4-dihydroisoquin-olin-2(1H)-yl)propan-1-one] was tested, and the IC50 was 0.001 to 10 µM.
`COC(=O)N1CCc2ccc(Oc3ccc(C(F)(F)F)cc3)cc2C1` [P-0025, methyl 7-(4-(trifluoro-methyl)phenoxy)-3,4-dihydroisoquinoline-2(1H)-carboxylate] was tested, and the IC50 was 0.001 to 10 µM.
`NS(=O)(=O)N1CC(C(=O)N2CCc3ccc(Oc4ccc(C(F)(F)F)cc4)cc3C2)C1` [P-0102, 3-(7-(4-(trifluoromethyl)-phenoxy)-1,2,3,4-tetra-hydroisoquinoline-2-carbonyl)azetidine-1-sulfonamide] was tested, and the IC50 was 0.001 to 10 µM.
With `CN(C)C1CC(C(=O)N2CCc3ccc(Oc4ccc(C(F)(F)F)c(F)c4)cc3C2)C1` (centres unmarked) [P-0111, (3-(dimethylamino)cyclo-butyl)(7-(3-fluoro-4-(trifluoromethyl)phen-oxy)-3,4-dihydroisoquin-olin-2(1H)-yl)methanone] the IC50 was 0.001 to 10 µM.
`O=C(C1CS(=O)(=O)C1)N1CCc2ccc(Oc3ccc(C(F)(F)F)cc3)cc2C1` [P-0077, (1,1-dioxidothietan-3-yl)(7-(4-(trifluorometh-yl)phenoxy)-3,4-dihydro-isoquinolin-2(1H)-yl)-methanone] gave an IC50 of 0.001 to 10 µM.
`CSCCC(=O)N1CCc2ccc(Oc3ccc(C(F)(F)F)cc3)cc2C1` [P-0031, 3-(methylthio)-1-(7-(4-(trifluoromethyl)phen-oxy)-3,4-dihydroisoquin-olin-2(1H)-yl)propan-1-one] gave an IC50 of 0.001 to 10 µM.
Compound `CS(=O)(=O)CCC(=O)N1CCc2ccc(Oc3ccc(C(F)(F)F)cc3)c(/C=C/C3CCNCC3)c2C1` [P-0222, (E)-3-(methylsulfonyl)-1-(8-(2-(piperidin-4-yl)-vinyl)-7-(4-(trifluoro-methyl)phenoxy)-3,4-dihydroisoquinolin-2(1H)-yl)propan-1-one] has an IC50 of 0.001 to 10 µM.
Compound `CNC(=O)c1cncc(N2CCc3ccc(Oc4ccc(C(F)(F)F)cc4)cc3C2)n1` [P-0231, N-methyl-6-(7-(4-(trifluoromethyl)phen-oxy)-3,4-dihydroisoquin-olin-2(1H)-yl)pyrazine-2-carboxamide] has an IC50 of 0.001 to 10 µM.
`CC(C)S(=O)(=O)N1CCc2ccc(Oc3ccc(C(F)(F)F)cc3)cc2C1` [P-0021, 2-(isopropylsulfonyl)-7-(4-(trifluoromethyl)-phenoxy)-1,2,3,4-tetra-hydroisoquinoline] showed an IC50 of 0.001 to 10 µM.
In the case of `CS(=O)(=O)CCC(=O)N1CCc2ccc(Oc3ccc(Cl)cc3)cc2C1` [P-0090, 1-(7-(4-chlorophenoxy)-3,4-dihydroisoquinolin-2(1H)-yl)-3-(methylsul-fonyl)propan-1-one], the IC50 is reported as 0.001 to 10 µM.
Compound `CN(C)CCCC(=O)N1CCc2ccc(Oc3ccc(C(F)(F)F)c(F)c3)cc2C1` [P-0110, 4-(dimethylamino)-1-(7-(3-fluoro-4-(trifluoro-methyl)phenoxy)-3,4-dihydroisoquinolin-2(1H)-yl)butan-1-one] has an IC50 of 0.001 to 10 µM.
Work on `COCC(C)NC(=O)N1CCc2c(cccc2Oc2ccc(C(F)(F)F)cc2)C1` (centres unmarked) [P-0266, N-(1-methoxypropan-2-yl)-5-(4-(trifluorometh-yl)phenoxy)-3,4-dihydro-isoquinoline-2(1H)-carboxamide] yielded an IC50 of 0.001 to 10 µM.
For `NCC(=O)N1CCc2ccc(Oc3ccc(C(F)(F)F)c(F)c3)cc2C1` [P-0113, 2-amino-1-(7-(3-fluoro-4-(trifluoromethyl)phen-oxy)-3,4-dihydroisoquin-olin-2(1H)-yl)ethan-1-one], the IC50 was 0.001 to 10 µM.
`CCCCC(=O)N1CCc2ccc(Oc3ccc(C(F)(F)F)cc3)cc2C1` [P-0023, 1-(7-(4-(trifluorometh-yl)phenoxy)-3,4-dihydro-isoquinolin-2(1H)-yl)-pentan-1-one] was tested, and the IC50 was 0.001 to 10 µM.
`NC(=O)NCC(=O)N1CCc2ccc(Oc3ccc(C(F)(F)F)cc3)cc2C1` [P-0079, 1-(2-oxo-2-(7-(4-(trifluoromethyl)phen-oxy)-3,4-dihydroisoquin-olin-2(1H)-yl)ethyl)urea] gave an IC50 of 0.001 to 10 µM.
Compound `CC(NS(C)(=O)=O)C(=O)N1CCc2ccc(Oc3ccc(C(F)(F)F)cc3)cc2C1` (centres unmarked) [P-0135, N-(1-oxo-1-(7-(4-(trifluoromethyl)phen-oxy)-3,4-dihydroisoquin-olin-2(1H)-yl)propan-2-yl)methanesulfonamide] has an IC50 of 0.001 to 10 µM.
Compound `CC(C)S(=O)(=O)N1CCc2c(cccc2Oc2ccc(C(F)(F)F)cc2)C1` [P-0235, 2-(isopropylsulfonyl)-5-(4-(trifluoromethyl)phen-oxy)-1,2,3,4-tetrahydro-isoquinoline] has an IC50 of 0.001 to 10 µM.
`CN(C)S(=O)(=O)N1CCc2ccc(Oc3ccc(C(F)(F)F)cc3)cc2C1` [P-0024, N,N-dimethyl-7-(4-(trifluoromethyl)phen-oxy)-3,4-dihydroiso-quinoline-2(1H)-sulfon-amide] showed an IC50 of 0.001 to 10 µM.
`O=C(Nc1ccccc1)N1CCc2ccc(Oc3ccc(C(F)(F)F)cc3)cc2C1` [P-0022, N-phenyl-7-(4-(trifluoro-methyl)phenoxy)-3,4-dihydroisoquinoline-2(1H)-carboxamide] gave an IC50 of 0.001 to 10 µM.
For `O=C(C1CCS(=O)(=O)CC1)N1CCc2ccc(Oc3ccc(C(F)(F)F)c(F)c3)cc2C1` [P-0143, (1,1-dioxidotetrahydro-2H-thiopyran-4-yl)(7-(3-fluoro-4-(trifluorometh-yl)phenoxy)-3,4-dihydro-isoquinolin-2(1H)-yl)-methanone], the IC50 was 0.001 to 10 µM.
In the case of `NC(=O)N1CCC(C(=O)N2CCc3c(cccc3Oc3ccc(C(F)(F)F)cc3)C2)C1` (centres unmarked) [P-0256, 3-(5-(4-(trifluorometh-yl)phenoxy)-1,2,3,4-tetrahydroisoquinoline-2-carbonyl)pyrrolidine-1-carboxamide], the IC50 is reported as 0.001 to 10 µM.
Compound `O=C(Cc1ccn[nH]1)N1CCc2ccc(Oc3ccc(C(F)(F)F)c(F)c3)cc2C1` [P-0149, 1-(7-(3-fluoro-4-(trifluoromethyl)phen-oxy)-3,4-dihydroiso-quinolin-2(1H)-yl)-2-(1H-pyrazol-5-yl)-ethan-1-one] has an IC50 of 0.001 to 10 µM.
`CCS(=O)(=O)N1CCc2ccc(Oc3ccc(C(F)(F)F)cc3)cc2C1` [P-0002, 2-(ethylsulfonyl)-7-(4-(trifluoromethyl)phen-oxy)-1,2,3,4-tetrahydro-isoquinoline] gave an IC50 of 0.001 to 10 µM.
For `NC(=O)c1cc(C(=O)N2CCc3ccc(Oc4ccc(C(F)(F)F)cc4)cc3C2)n[nH]1` [P-0124, 3-(7-(4-(trifluorometh-yl)phenoxy)-1,2,3,4-tetrahydroisoquinoline-2-carbonyl)-1H-pyrazole-5-carboxamide], the IC50 was 0.001 to 10 µM.
Work on `CC(=O)N1CCC(c2c(Oc3ccc(C(F)(F)F)cc3)ccc3c2CN(C(=O)CCS(C)(=O)=O)CC3)C1` (centres unmarked) [P-0215, 1-(8-(1-acetylpyrrolidin-3-yl)-7-(4-(trifluorometh-yl)phenoxy)-3,4-dihydro-isoquinolin-2(1H)-yl)-3-(methylsulfonyl)pro-pan-1-one] yielded an IC50 of 10 to 100 µM.
`O=C(NC1CCOC1)N1CCc2ccc(Oc3ccc(C(F)(F)F)cc3)cc2C1` (centres unmarked) [P-0038, N-(tetrahydrofuran-3-yl)-7-(4-(trifluorometh-yl)phenoxy)-3,4-dihydro-isoquinoline-2(1H)-carboxamide] was tested, and the IC50 was 0.001 to 10 µM.
`O=C(CC1CS(=O)(=O)C1)N1CCc2ccc(Oc3ccc(C(F)(F)F)cc3)cc2C1` [P-0072, 2-(1,1-dioxidothietan-3-yl)-1-(7-(4-(trifluoro-methyl)phenoxy)-3,4-dihydroisoquinolin-2(1H)-yl)ethan-1-one] was tested, and the IC50 was 0.001 to 10 µM.
Work on `N#CCCC(=O)N1CCc2ccc(Oc3ccc(C(F)(F)F)cc3)cc2C1` [P-0040, 4-oxo-4-(7-(4-(trifluoro-methyl)phenoxy)-3,4-dihydroisoquinolin-2(1H)-yl)butanenitrile] yielded an IC50 of 0.001 to 10 µM.
For `CS(=O)(=O)CCC(=O)N1CCc2ccc(-c3ccc(OC(F)(F)F)cc3)cc2C1` [P-0277, 3-(methylsulfonyl)-1-(7-(4-(trifluoromethoxy)phenyl)-3,4-dihydroisoquinolin-2(1H)-yl)propan-1-one], the IC50 was 10 to 100 µM.

Same assay, conditions: MSTO-211H+12XGTIIC cell line, luciferase signal normalized to cell viability, 24 hours compound incubation; read-out: MSTO-211H GMean IC50 (uM) Cell Assay Reporter Cell Variant: TEAD
In the case of `CC(=O)N1CCC(C2c3cc(Oc4ccc(C(F)(F)F)cc4)ccc3CCN2C(=O)CCS(C)(=O)=O)C1` (centres unmarked) [P-0204, 1-(1-(1-acetylpyrrolidin-3-yl)-7-(4-(trifluorometh-yl)phenoxy)-3,4-dihydro-isoquinolin-2(1H)-yl)-3-(methylsulfonyl)-propan-1-one], the IC50 is reported as 0.001 to 10 µM.
